Read-outs that look alike come from different tables or passages of the source.

The subject of one data set is KKAy mice. As to the kind of experiment: Blood glucose and blood lipid (triglyceride) lowering action in mice. The data set is classed as in vivo. To be noted: Mus musculus, 4TO7, po, 0.03% in powder diet, 4 to 7 days. The source says: The test compound was mixed with a powder diet (CE-2, CLEA JAPAN, INC.) at a proportion of 0.01% (0.03% for the compounds of Examples 1, 2, 12, 81, 94, 96, 129 and 143, and 0.005% for the compounds of Examples 28, 30 and 37) and freely given to KKAy mice (9 to 14-week-old, 5 mice per group) which are obesity non-insulin-dependent diabetes (type-2 diabetes) models, for 4 to 7 days. During this period, water was freely given. The blood was drawn from the orbital venous plexus. Glucose and triglyceride in the plasma separated from the blood were quantitated using L Type Wako Glu2 (Wako Pure Chemical Industries, Ltd.) and L Type Wako TG·H (Wako Pure Chemical Industries, Ltd.), respectively, according to an enzyme method.

Take `CCCCCS(=O)(=O)NC(=O)CCc1cc(OC(C)C)nn1Cc1ccc(C(F)(F)F)cc1Cl` [Example 143, 3-{1-[2-chloro-4-(trifluoromethyl)benzyl]-3-isopropoxy-1H-pyrazol-5-yl}-N-(pentylsulfonyl)propanamide]: the response vs control in vivo at 0.03 % is 47% in the data set with KKAy mice (plasma glucose relative to non-administration group = 100%, read-out: hypoglycemic action (%)) and 76% with KKAy mice (plasma triglyceride relative to non-administration group = 100%, read-out: hypolipidemic action (%)).
In turn, `CCCCCS(=O)(=O)NC(=O)CCc1ccc(OCCC2(C)OCCO2)cc1Oc1ncc(C(F)(F)F)cc1Cl` [Example 425, 3-{2-{[3-chloro-5-(trifluoromethyl)pyridin-2-yl]oxy}-4-[2-(2-methyl-1,3-dioxolan-2-yl)ethoxy]phenyl}-N-(pentylsulfonyl)propanamide] gave a melting point of 96.5 to 97.5 °C.
`COCCOc1ccc(CCCOC(=O)NS(N)(=O)=O)c(Oc2ncc(Cl)cc2Cl)c1` [Example 426, 3-[2-[(3,5-dichloropyridin-2-yl)oxy]-4-(2-methoxyethoxy)phenyl]propyl (aminosulfonyl)carbamate]: the melting point fell in the range of 153.2 to 153.8 °C.
Consider `COCCCNS(=O)(=O)NC(=O)OCCCc1ccc(OCCOC)cc1Oc1ncc(Cl)cc1Cl` [Example 428, 3-[2-[(3,5-dichloropyridin-2-yl)oxy]-4-(2-methoxyethoxy)phenyl]propyl {[(3-methoxypropyl)amino]sulfonyl}carbamate], for which the melting point lay within 87.9 to 89 °C.
Still for that read-out and setting: the figure for `COCCCNS(=O)(=O)NC(=O)OC/C=C/c1ccc(OCCOC)cc1Oc1ncc(C(F)(F)F)cc1Cl` [Example 432, (2E)-3-[2-{[3-chloro-5-(trifluoromethyl)pyridin-2-yl]oxy}-4-(2-methoxyethoxy)phenyl]prop-2-en-1-yl {[(3-methoxypropyl)amino]sulfonyl}carbamate] is 98 to 100 °C; for `COCCOc1ccc(/C=C/COC(=O)NS(=O)(=O)NCCN2CCCC2)c(Oc2ncc(C(F)(F)F)cc2Cl)c1` [Example 434, (2E)-3-[2-{[3-chloro-5-(trifluoromethyl)pyridin-2-yl]oxy}-4-(2-methoxyethoxy)phenyl]prop-2-en-1-yl {[(2-pyrrolidin-1-ylethyl)amino]sulfonyl}carbamate] it is 154 to 156 °C; for `COCCOc1ccc(/C=C/COC(=O)NS(=O)(=O)NCCc2ccccc2)c(Oc2ncc(C(F)(F)F)cc2Cl)c1` [Example 435, (2E)-3-[2-{[3-chloro-5-(trifluoromethyl)pyridin-2-yl]oxy}-4-(2-methoxyethoxy)phenyl]prop-2-en-1-yl {[(2-phenylethyl)amino]sulfonyl}carbamate] it is 113 to 114 °C.
Still for that read-out and setting: the result for `CCCCCS(=O)(=O)NC(=O)/C=C/c1ccc(OCC(C)=O)cc1Oc1ncc(C(F)(F)F)cc1Cl` [Example 452, (2E)-3-[2-{[3-chloro-5-(trifluoromethyl)pyridin-2-yl]oxy}-4-(2-oxopropoxy)phenyl]-N-(pentylsulfonyl)acrylamide] reads 187 to 188 °C; that for `CCCCCS(=O)(=O)NC(=O)/C=C/c1ccc(OCC(COC(C)C)OC(C)=O)cc1Oc1ncc(C(F)(F)F)cc1Cl` (centres unmarked) [Example 455, 2-(3-{[3-chloro-5-(trifluoromethyl)pyridin-2-yl]oxy}-4-{(1E)-3-oxo-3-[(pentylsulfonyl)amino]prop-1-en-1-yl}phenoxy)-1-(isopropoxymethyl)ethyl acetate], 101 to 103 °C.
The same measure, in the same setting: the result for `CCCCCS(=O)(=O)NC(=O)/C=C/c1ccc(OCC(O)COC(C)C)cc1Oc1ncc(C(F)(F)F)cc1Cl` (centres unmarked) [Example 456, (2E)-3-[2-{[3-chloro-5-(trifluoromethyl)pyridin-2-yl]oxy}-4-(2-hydroxy-3-isopropoxypropoxy)phenyl]-N-(pentylsulfonyl)acrylamide] reads 86 to 88 °C; that for `CCCCCS(=O)(=O)NC(=O)/C=C/c1ccc(C)n1Cc1ccc(Cl)cc1Cl` [Example 457, (2E)-3-[1-(2,4-dichlorobenzyl)-5-methyl-1H-pyrrol-2-yl]-N-(pentylsulfonyl)acrylamide], 189 to 190 °C.
With `CCCCCS(=O)(=O)NC(=O)/C=C/c1c(C)cc(C)n1Cc1ccc(Cl)cc1Cl` [Example 458, (2E)-3-[1-{2,4-dichlorobenzyl)-3,5-dimethyl-1H-pyrrol-2-yl]-N-(pentylsulfonyl)acrylamide], the melting point was in the range of 170 to 171 °C.
On the same count and under the same terms, the figure for `CCCCCS(=O)(=O)NC(=O)/C=C/c1ccc(OCCOC)cc1Oc1ncc(Br)cc1C` [Example 460, (2E)-3-[2-[(5-bromo-3-methylpyridin-2-yl)oxy]-4-(2-methoxyethoxy)phenyl]-N-(pentylsulfonyl)acrylamide] is 159.8 to 160.2 °C; for `CCCCCS(=O)(=O)NC(=O)/C=C/c1ccc(OCCOC)cc1Oc1ncc(NC(C)=O)cc1C` [Example 463, (2E)-3-[2-{[5-(acetylamino)-3-methylpyridin-2-yl]oxy}-4-(2-methoxyethoxy)phenyl]-N-(pentylsulfonyl)acrylamide] it is 187.9 to 188.2 °C; for `CCOC(=O)c1cnc(Oc2cc(OCCOC)ccc2CCCOC(=O)NCC2CC2)c(Cl)c1` [Example 465, ethyl 5-chloro-6-[2-[3-({[(cyclopropylmethyl)amino]carbonyl}oxy)propyl]-5-(2-methoxyethoxy)phenoxy]nicotinate] it is 94.6 to 94.8 °C.
Still for that read-out and setting: the figure for `CCCCCS(=O)(=O)NC(=O)/C=C/c1ccc(OCCOC)cc1Oc1ncc(-c2ccccc2)cc1C` [Example 467, (2E)-3-{4-(2-methoxyethoxy)-2-[(3-methyl-5-phenylpyridin-2-yl)oxy]phenyl}-N-(pentylsulfonyl)acrylamide] is 132.8 to 133.5 °C.
In turn, `C/C(=C\c1ccc(OC(C)C)cc1Oc1ncc(C(F)(F)F)cc1Cl)C(=O)NS(=O)(=O)NCc1cnc(C)cn1` [Example 470, (2E)-3-(2-{[3-chloro-5-(trifluoromethyl)pyridin-2-yl]oxy}-4-isopropoxyphenyl)-2-methyl-N-({[(5-methylpyrazin-2-yl)methyl]amino}sulfonyl)acrylamide] yielded a melting point of 126 to 128 °C.
Still for that read-out and setting: the result for `C/C(=C\c1ccc(OC(C)C)cc1Oc1ncc(C(F)(F)F)cc1Cl)C(=O)NS(=O)(=O)NCCc1ccccn1` [Example 471, (2E)-3-(2-{[3-chloro-5-(trifluoromethyl)pyridin-2-yl]oxy}-4-isopropoxyphenyl)-2-methyl-N-{[(2-pyridin-2-ylethyl)amino]sulfonyl}acrylamide] reads 121 to 123 °C; that for `CCCCOc1ccc(CCCOC(=O)NS(=O)(=O)NCCOC(C)C)c(Oc2ncc(C(F)(F)F)cc2Cl)c1` [Example 473, 3-(4-butoxy-2-{[3-chloro-5-(trifluoromethyl)pyridin-2-yl]oxy}phenyl)propyl {[(2-isopropoxyethyl)amino]sulfonyl}carbamate], 91.4 to 91.6 °C; that for `COCCCOc1ccc(CCCOC(=O)NS(=O)(=O)NCCOC(C)C)c(Oc2ncc(C(F)(F)F)cc2Cl)c1` [Example 474, 3-[2-{[3-chloro-5-(trifluoromethyl)pyridin-2-yl]oxy}-4-(3-methoxypropoxy)phenyl]propyl {[(2-isopropoxyethyl)amino]sulfonyl}carbamate], 67.4 to 68 °C.
Same read-out and setting: the result for `C=CCCOc1ccc(CCCOC(=O)NS(=O)(=O)NCCOC(C)C)c(Oc2ncc(C(F)(F)F)cc2Cl)c1` [Example 475, 3-(4-(but-3-en-1-yloxy)-2-{[3-chloro-5-(trifluoromethyl)pyridin-2-yl]oxy}phenyl)propyl {[(2-isopropoxyethyl)amino]sulfonyl}carbamate] reads 111.1 to 113 °C.
On the same count and under the same terms, the result for `CC(C)OCCNS(=O)(=O)NC(=O)OCCCc1ccc(OCc2ccco2)cc1Oc1ncc(C(F)(F)F)cc1Cl` [Example 476, 3-[2-{[3-chloro-5-(trifluoromethyl)pyridin-2-yl]oxy}-4-(2-furylmethoxy)phenyl]propyl {[(2-isopropoxyethyl)amino]sulfonyl}carbamate] reads 118 to 119.8 °C.

For the origin of these results see patent US20100041892A1, “Therapeutic agent for diabetes” (priority 2005, published 2010).
